Entries after “also recorded” stand apart in the source; their conditions may differ.
Legend:
[1] = system: Lgr5+ supporting cells isolated from the cochlea; assay: Expansion of Lgr5-GFP inner ear progenitor cells in Matrigel based 3D culture; format: cell-based, mouse; conditions: for Lgr5-GFP expression, effect of addition / cell proliferation, effect of addition: neonatal Lgr5 inner ear progenitor cells; for use in place of VPA: data not shown; for importance of the factor for cell proliferation / importance of the factor for Lgr5-GFP expression: factor removed from the culture medium; for GFP+ cell number / total number of cells / GFP+ percentage: named factor removed from EFICVP6, 10 days
Method: Cell culture: Heterozygous Lgr5-EGFP-IRES-CreERT2 mice were obtained from Jackson Labs, and neonatal P2-P5 mice were used for cell isolation. Organ of Corti was isolated from Lgr5-GFP mice and further dissociated into single cells using trypsin. Cells were then cultured as previously described (Yin et al, 2014). Briefly, cells were entrapped in Matrigel and plated at the center of wells in a 24-well plate. Following polymerization of Matrigel, 500 μl of culture media (Advanced DMEM/F12 with N2 and B27) was added, containing growth factors including EGF (50 ng/ml) (epidermal growth factor), bFGF (20 ng/ml) (fibroblast growth factor), and IGF1 (50 ng/ml) (insulin-like growth factor 1), and small molecules including CHIR99021 (5 μM), valproic acid (1 mM), 2-phospho-L-ascorbic acid (280 μM), and 616452 (2 μM). Y-27632 (10 μM) was added for the first 2 days. In some experiments, bFGF was used at 50 ng/ml.
For single cell isolation, the organs of Corti were then treated with Cell Recovery Solution (Corning) for 1 h to separate cochlear epithelium from the underlying mesenchyme. Epithelia were then collected and treated with Trypsin (Life Technologies) for 15-20 minutes at 37° C. Single cells obtained by mechanical trituration were filtered by cell strainer (40 μm) and washed with cell culture media. For FACS sorting of Lgr5-high and Lgr5-Low cells, FACS ARIA (BD) was used and Lgr5-GFP was used as indicator of Lgr5 level. Sorted single cells were cultured in Matrigel in inner ear cell culture media with supplement growth factors and small molecules. Y-27632 was added in the first 2 days.
FACS analysis: Cell culture media was removed and Trypsin was added. After incubation at 37° C. for 10-20 min, colonies were dissociated into single cells. Live-cell number were counted using a hemocytometer and trypan blue staining. The cells were then stained with propidium iodide (PI) and analyzed with flow cytometry. The number of GFP-positive cells was calculated by multiplying the total number of cells by the percentage of GFP-positive cells.

patients = conditions: cited from earlier work
[2] = system: expanded Lgr5-positive cells; assay: Differentiation of expanded Lgr5-positive cells to hair cells; format: cell-based, mouse; conditions: for effect on differentiation of hair cells: in differentiation media
Method: Differentiation protocol: For differentiation of expanded Lgr5-positive cells, following 10 days of culture in the cell expansion condition (EFICVP6), the cell colonies were transferred to fresh Matrigel and further cultured in differentiation media. Differentiation media contains Notch pathway inhibitor (e.g. DAPT, D, 5 μM, or LY411575, LY, 5 μM), with or without Gsk3β inhibitor (e.g. CHIR99021). Media were changed every other day. Following another 6-10 days of incubation with differentiation media, the colonies were harvested for qPCR analysis or fixed with 4% PFA and immunostained with hair cell markers Myo7a and Prestin.
RNA extraction and quantitative real-time PCR (qPCR): RNA was isolated from cultured cells (RNeasy Mini Kit; Qiagen) according to the manufacturer's protocol. Quantitative real-time PCR was performed with QuantiTect Probe PCR kit (Qiagen) using commercially available primers and TaqMan probes (Myo7a and Hprt Life Technologies).
Immunocytochemistry staining: Colonies were fixed at room temperature in 4% paraformaldehyde/PBS for 15-20 min and then washed twice with PBS containing 0.1% BSA. Cells were then permeabilized with 0.25% Triton X-100 in PBS in 4° C. for 30 minutes. Following 2 washes with PBS containing 0.1% BSA, the cells were incubated with blocking solution (Power Block, Biogenex) for 1 h. Diluted primary antibodies (in Power Block solution) was applied for 4 h at room temperature or overnight at 4° C. Primary antibodies used were Myosin VIIA (1:500, Rabbit polyclonal from Proteus Biosciences) and Prestin (1:400, Goat polyclonal from Santa Cruz). After 3 washes for 5 minutes each, secondary antibodies (Alexafluor 594 and 647-conjugated; Invitrogen) were added at 1:500 dilution and incubated at room temperature for 30 minutes. Nuclei were visualized with 4,6-diamidino-2-phenylindole (DAPI, Vector Laboratories). Staining was visualized with inverted fluorescence microscope (EVOS; Advanced Microscopy Group).

[3] = named factor removed, versus EFICVP6

In the case of `Nc1ncnc2c1c(I)cn2[C@@H]1O[C@H](CO)[C@@H](O)[C@H]1O` [5IT], the “Lgr5-GFP expression, effect of addition” value [1] is reported as “does not promote the expression of Lgr5-GFP”.

With `O=C(CCCCCCNC(=O)c1cnc(N(c2ccccc2)c2ccccc2)nc1)NO` [ACY1215] the “use in place of VPA” value [1] was “does not work”.

For `Cc1cc(N2CCOCC2)cc2[nH]c(-c3c(NC[C@@H](O)c4cccc(Cl)c4)cc[nH]c3=O)nc12` [BMS536924], the “Lgr5-GFP expression, effect of addition” value [1] was “does not promote the expression of Lgr5-GFP”.

In the case of `CC(C)(C)OC(=O)Nc1ccc(-c2cc(C(=O)NCCCCCCC(=O)NO)no2)cc1` [CAY10603], the “use in place of VPA” value [1] is reported as “does not work”.

In the case of `N.N.[Cl][Pt][Cl]` [Cisplatin], the “high frequency hearing loss (>8 kHZ)” value (patients; human, in vivo) is listed as at most 90%.

With `Cc1ccc2nc(NC(=O)CSc3nc4c(c(=O)n3-c3ccccc3)SCC4)sc2c1` [IWP-2] the “hair cell generation (Myosin VIIA and Prestin staining)” value ([2]; 10 days of differentiation) was “hair cell generation is rarely observed from cultured inner ear progenitor cells”.

For `Cc1cc(NC(=O)c2cccc(NC(=O)/C=C/CN(C)C)c2)ccc1Nc1nccc(-c2cccnc2)n1` [JNK-IN8], the “Lgr5-GFP expression, effect of addition” value [1] was “does not promote the expression of Lgr5-GFP”.

For `c1ccc2c(-c3cnn4cc(-c5ccc(N6CCNCC6)cc5)cnc34)ccnc2c1` [LDN193189], the “Lgr5-GFP expression, effect of addition” value [1] was “does not promote the expression of Lgr5-GFP; also recorded: greatly decreased Lgr5-GFP expression”.

With `O=C(NOC[C@H](O)CO)c1ccc(F)c(F)c1Nc1ccc(I)cc1F` [PD0325901] the “Lgr5-GFP expression, effect of addition” value [1] was “does not promote the expression of Lgr5-GFP”.

In the case of `CNC(=O)c1ccc(C)c(-n2c(C)cc(OCc3ccc(F)cc3F)c(Br)c2=O)c1` [PH797804], the “Lgr5-GFP expression, effect of addition” value [1] is reported as “does not promote the expression of Lgr5-GFP”.

With `CO[C@@H]1[C@H](N(C)C(=O)c2ccccc2)C[C@H]2O[C@]1(C)n1c3ccccc3c3c4c(c5c6ccccc6n2c5c31)C(=O)NC4` [PKC412] the “Lgr5-GFP expression, effect of addition” value [1] was “does not promote the expression of Lgr5-GFP”.

For `CCOC(=O)C1=C(N)Oc2ccc(Cl)cc2C1C(C#N)C(=O)OCC` (stereo not shown) [SC79], the “Lgr5-GFP expression, effect of addition” value [1] was “does not promote the expression of Lgr5-GFP”.

With `C[C@@H]1CCN(C(=O)CC#N)C[C@@H]1N(C)c1ncnc2[nH]ccc12` [Tofacitinib] the “Lgr5-GFP expression, effect of addition” value [1] was “does not promote the expression of Lgr5-GFP”.

In the case of `CN1CCc2c(c3ccccc3n2Cc2ccc(C(=O)NO)cc2)C1` [Tubastatin A], the “use in place of VPA” value [1] is reported as “does not work”.

For `O=c1ncn2nc(Sc3ccc(F)cc3F)ccc2c1-c1c(Cl)cccc1Cl` [VX745], the “Lgr5-GFP expression, effect of addition” value [1] was “does not promote the expression of Lgr5-GFP”.

In the case of `Cc1cccc(-c2n[nH]cc2-c2ccc3ncccc3n2)n1` [compound 616452, 2-(3-(6-Methylpyridin-2-yl)-1H-pyrazol-4-yl)-1,5 napththyridine], the “effect on differentiation of hair cells” value [2] is reported as “inhibit the differentiation of hair cells”, the “passage / extended culture of the cells” value [1] is reported as “enables the passage of cultured inner ear progenitor cells; also recorded: enables extended culture of the cells” and the passage of colonies [1] is reported as “up to 5 generations”. For the same compound, the “colony size and GFP intensity” value ([1]; added on EFICVP) was “increases the intensity of Lgr5-GFP and the size of colonies; also recorded: tend to grow larger and possess brighter GFP expression than that in control conditions”, the “importance of the factor for cell proliferation” value [1] was “greater impact on cell proliferation; also recorded: significant reduction in proliferation; also recorded: important to promote cell proliferation” and the “GFP+ cell number” value [1] was 9.8×10^4 cells. The “total number of cells” value [1] was 1.7×10^5 cells, the “decrease of GFP+ cell number” value [1, 3] was about 3 fold and the “decrease of total cell number” value [1, 3] was about 3 fold. For the same compound, the “Lgr5-GFP expression, effect of addition” value [1] was “does not promote the expression of Lgr5-GFP; also recorded: didn't increase Lgr5-GFP expression” and the “cell proliferation, effect of addition” value [1] was “promotes the proliferation of Lgr5 inner ear progenitor cells”.

For `[H]/N=C(/N)N[C@H]1[C@H](O)[C@@H](O)[C@H](O[C@@H]2O[C@@H](C)[C@](O)(C=O)[C@H]2O[C@@H]2O[C@@H](CO)[C@H](O)[C@@H](O)[C@@H]2NC)[C@@H](N/C(N)=N\[H])[C@@H]1O` [streptomycin], the “incidence of vestibular impairment” value (patients; 1 gram per day) is given as 25% and the “patients with some vestibular impairment” value (patients; 2 grams daily for 60 to 120 days) is given as about 75%.

With “EGF: epidermal growth factor (NSDSECPLSHDGYCLHDGVCMYIEALDKYACNCVVGYIGERCQYRDLKWWELR; UniProt P01133 971-1023, looked up)” the “effect on differentiation of hair cells” value [2] was “inhibit the differentiation of hair cells”, the “importance of the factor for Lgr5-GFP expression” value [1] was “less important for GFP expression” and the “importance of the factor for cell proliferation” value [1] was “important for cell proliferation; also recorded: greater impact on cell proliferation; also recorded: significant reduction in proliferation; also recorded: important to promote cell proliferation”. The “decrease of GFP+ cell number” value [1, 3] was about 2 fold and the “decrease of total cell number” value [1, 3] was about 2 fold.

In the case of IGF-1: insulin like growth factor 1, the “effect on differentiation of hair cells” value [2] is reported as “inhibit the differentiation of hair cells”, the “importance of the factor for Lgr5-GFP expression” value [1] is reported as “marginal effect on cell proliferation or GFP maintenance” and the “importance of the factor for cell proliferation” value [1] is reported as “marginal effect on cell proliferation or GFP maintenance; also recorded: marginal effect to promote cell proliferation”. The “importance of the factor for Lgr5-GFP expression” value ([1]; listed as IGF) was “marginal beneficial effect in promoting cell proliferation and GFP expression”, the “importance of the factor for cell proliferation” value ([1]; listed as IGF) was “marginal beneficial effect in promoting cell proliferation and GFP expression” and the “importance of the factor for Lgr5-GFP expression” value ([1]; listed as IGF1) was “marginal beneficial effect on cell proliferation and Lgr5 expression”. The “importance of the factor for cell proliferation” value ([1]; listed as IGF1) was “marginal beneficial effect on cell proliferation and Lgr5 expression”, the “GFP+ percentage” value [1] was 53% and the “total number of cells” value [1] was 4.1×10^5 cells.

For Laminin 511: added into Matrigel, the “Lgr5-GFP expression, effect of addition” value [1] was “promotes GFP expression”.

In the case of bFGF: basic fibroblast growth factor, the “effect on differentiation of hair cells” value [2] is reported as “inhibit the differentiation of hair cells”, the “importance of the factor for Lgr5-GFP expression” value [1] is reported as “less important for GFP expression; also recorded: important for GFP expression” and the “importance of the factor for cell proliferation” value [1] is reported as “important for cell proliferation; also recorded: greatly impacted cell proliferation; also recorded: greatest effect on proliferation; also recorded: important to promote cell proliferation”. For the same compound, the “GFP+ cell number” value [1] was 1.4×10^4 cells, the “GFP+ percentage” value [1] was 32% and the “decrease of GFP+ cell number” value [1, 3] was 20 fold. The “decrease of GFP+ percentage” value [1, 3] was about 2 fold, the “decrease of total cell number” value [1, 3] was 10 fold and the “cell proliferation, effect of addition” value [1] was “promotes the proliferation of Lgr5 inner ear progenitor cells; also recorded: increased cell proliferation”.
